Assay results reported in PMC7587962, “Evaluation of Cytotoxicity and α-Glucosidase Inhibitory Activity of Amide and Polyamino-Derivatives of Lupane Triterpenoids” (Molecules, 2020).

Tests used:
A549/ATCC = experiment: NCI-60 SRB screen: non-small cell lung cancer A549/ATCC; type: cell-based, human; conditions: A549/ATCC
HCC-2998 = experiment: NCI-60 SRB screen: colon cancer HCC-2998; type: cell-based, human; conditions: HCC-2998
SK-MEL-28 = experiment: NCI-60 SRB screen: melanoma SK-MEL-28; type: cell-based, human; conditions: SK-MEL-28
Ovarian Cancer subpanel = experiment: NCI-60 screen, subpanel Ovarian Cancer
OVCAR-8 = experiment: NCI-60 SRB screen: ovarian cancer OVCAR-8; type: cell-based, human; conditions: OVCAR-8
HCT-15 = experiment: NCI-60 SRB screen: colon cancer HCT-15; type: cell-based, human; conditions: HCT-15
UACC-62 = experiment: NCI-60 SRB screen: melanoma UACC-62; type: cell-based, human; conditions: UACC-62
SNB-19 = experiment: NCI-60 SRB screen: CNS cancer SNB-19; type: cell-based, human; conditions: SNB-19
HCT-116 = experiment: NCI-60 SRB screen: colon cancer HCT-116; type: cell-based; conditions: Homo sapiens, 48 h, HCT-116
SK-MEL-2 = experiment: NCI-60 SRB screen: melanoma SK-MEL-2; type: cell-based, human; conditions: SK-MEL-2
SN12C = experiment: NCI-60 SRB screen: renal cancer SN12C; type: cell-based, human
SF-268 = experiment: NCI-60 SRB screen: CNS cancer SF-268; type: cell-based, human; conditions: SF-268
HOP-62 = experiment: NCI-60 SRB screen: non-small cell lung cancer HOP-62; type: cell-based, human; conditions: HOP-62
CCRF-CEM = experiment: NCI-60 SRB screen: leukemia CCRF-CEM; type: cell-based; conditions: Homo sapiens, 48 h
CNS cancer subpanel = experiment: NCI-60 screen, subpanel CNS cancer
SR = experiment: NCI-60 SRB screen: leukemia SR; type: cell-based; conditions: Homo sapiens, 48 h
U251 = experiment: NCI-60 SRB screen: CNS cancer U251; type: cell-based; conditions: Homo sapiens, U251
NCI-H522 = experiment: NCI-60 SRB screen: non-small cell lung cancer NCI-H522; type: cell-based, human; conditions: NCI-H522
SW-620 = experiment: NCI-60 SRB screen: colon cancer SW-620; type: cell-based; conditions: Homo sapiens, 48 h, SW-620
M14 = experiment: NCI-60 SRB screen: melanoma M14; type: cell-based, human; conditions: M14
SF-295 = experiment: NCI-60 SRB screen: CNS cancer SF-295; type: cell-based, human; conditions: SF-295
SK-MEL-5 = experiment: NCI-60 SRB screen: melanoma SK-MEL-5; type: cell-based, human; conditions: SK-MEL-5
TK-10 = experiment: NCI-60 SRB screen: renal cancer TK-10; type: cell-based, human; conditions: TK-10
HS 578T = experiment: NCI-60 SRB screen: breast cancer HS 578T; type: cell-based, human; conditions: HS 578T
MCF7 = experiment: NCI-60 SRB screen: breast cancer MCF7; type: cell-based; conditions: Homo sapiens, 48 h, MCF7
NCI-H226 = experiment: NCI-60 SRB screen: non-small cell lung cancer NCI-H226; type: cell-based, human; conditions: NCI-H226
OVCAR-4 = experiment: NCI-60 SRB screen: ovarian cancer OVCAR-4; type: cell-based; conditions: Homo sapiens; OVCAR-4; five concentrations, 48 h, SRB; read-out: GI50
MDA-MB-468 = experiment: NCI-60 SRB screen: breast cancer MDA-MB-468; type: cell-based, human
SNB-75 = experiment: NCI-60 SRB screen: CNS cancer SNB-75; type: cell-based, human; conditions: SNB-75
DU-145 = experiment: NCI-60 SRB screen: prostate cancer DU-145; type: cell-based, human; conditions: DU-145
UO-31 = experiment: NCI-60 SRB screen: renal cancer UO-31; type: cell-based, human; conditions: UO-31
786-0 = experiment: NCI-60 SRB screen: renal cancer 786-0; type: cell-based, human; conditions: 786-0
[1] = system: 60 human tumor cell lines; conditions: single dose 10 µM
LOX IMVI = experiment: NCI-60 SRB screen: melanoma LOX IMVI; type: cell-based, human
IGROV1 = experiment: NCI-60 SRB screen: ovarian cancer IGROV1; type: cell-based, human; conditions: IGROV1
RPMI-8226 = experiment: NCI-60 SRB screen: leukemia RPMI-8226; type: cell-based; conditions: Homo sapiens, 48 h, RPMI-8226
[2] = Homo sapiens, five concentrations, 48 h, SRB, read-out: GI50
[3] = single dose 10 µM, read-out: Percentage Cell Growth
[4] = five concentrations, SRB, read-out: GI50

With `C=C(C)[C@@H]1CC[C@]2(C(=O)NCCCN)CC[C@]3(C)[C@H](CC[C@@H]4[C@@]5(C)CCC(=O)C(C)(C)[C@@H]5CC[C@]43C)[C@@H]12` [Compound 10] the “Percentage Cell Growth” value (A549/ATCC; single dose 10 µM) was −4.70%, the GI50 (A549/ATCC; [2]) was 19.6 µM and the “Percentage Cell Growth” value (HCC-2998; single dose 10 µM) was −23.40%. The GI50 (HCC-2998; [2]) was 21.4 µM, the GI50 (SK-MEL-28; [2]) was 22.1 µM and the “Percentage Cell Growth” value (SK-MEL-28; single dose 10 µM) was −31.42%. For the same compound, the “MID b, average sensitivity of all cell line of particular subpanel” value (Ovarian Cancer subpanel) was 24.63 µM, the “Selectivity, ratio MID a: MID b” value (Ovarian Cancer subpanel) was 0.83 and the GI50 (OVCAR-8; [2]) was 27.7 µM. The “Percentage Cell Growth” value (OVCAR-8; single dose 10 µM) was −3.81%, the “Percentage Cell Growth” value (HCT-15; single dose 10 µM) was −22.06% and the GI50 (HCT-15; [2]) was 21.7 µM. The GI50 (UACC-62; [2]) was 27.4 µM, the “Percentage Cell Growth” value (UACC-62; single dose 10 µM) was −22.62% and the GI50 (SNB-19; [2]) was 24.7 µM. For the same compound, the “Percentage Cell Growth” value (SNB-19; single dose 10 µM) was −29.49%, the activity at 10 µM (HCT-116; [3]) was 1.97% and the GI50 (HCT-116; [4]) was 13.9 µM. The GI50 (SK-MEL-2; [2]) was 27.3 µM, the “Percentage Cell Growth” value (SK-MEL-2; single dose 10 µM) was −24.21% and the GI50 (SN12C; [2]) was 20.8 µM. For the same compound, the “Percentage Cell Growth” value (SN12C; single dose 10 µM) was −34.74%, the GI50 (SF-268; [2]) was 23 µM and the “Percentage Cell Growth” value (SF-268; single dose 10 µM) was −16.88%. For the same compound, the “Percentage Cell Growth” value (HOP-62; single dose 10 µM) was −26.80%, the GI50 (HOP-62; [2]) was 18.3 µM and the activity at 10 µM (CCRF-CEM; [3]) was 1.39%. The GI50 (CCRF-CEM; [4]) was 22.1 µM, the “MID b, average sensitivity of all cell line of particular subpanel” value (CNS cancer subpanel) was 23.00 µM and the “Selectivity, ratio MID a: MID b” value (CNS cancer subpanel) was 0.89. For the same compound, the activity at 10 µM (SR; [3]) was 23.7%, the GI50 (SR; [4]) was 9.05 µM and the activity at 10 µM (U251; U-251, 48 h, single dose 10 µM, read-out: Percentage Cell Growth) was -13.8%. The GI50 (U251; U-251, five concentrations, 48 h, SRB, read-out: GI50) was 17.7 µM, the GI50 (NCI-H522; [2]) was 21 µM and the “Percentage Cell Growth” value (NCI-H522; single dose 10 µM) was −16.98%. For the same compound, the activity at 10 µM (SW-620; [3]) was -36.2%, the GI50 (SW-620; [4]) was 22.5 µM and the GI50 (M14; [2]) was 24.7 µM. The “Percentage Cell Growth” value (M14; single dose 10 µM) was 5.07%, the GI50 (SF-295; [2]) was 22.6 µM and the “Percentage Cell Growth” value (SF-295; single dose 10 µM) was −26.39%. The GI50 (SK-MEL-5; [2]) was 19.4 µM, the “Percentage Cell Growth” value (SK-MEL-5; single dose 10 µM) was −23.93% and the GI50 (TK-10; [2]) was 23.9 µM. For the same compound, the “Percentage Cell Growth” value (TK-10; single dose 10 µM) was −32.23%, the “Percentage Cell Growth” value (HS 578T; single dose 10 µM) was −4.98% and the GI50 (HS 578T; [2]) was 40.5 µM. It also gave an activity at 10 µM (MCF7; [3]) of -8.46%, a GI50 (MCF7; [4]) of 10.7 µM and a GI50 (NCI-H226; [2]) of 21.2 µM. For the same compound, the “Percentage Cell Growth” value (NCI-H226; single dose 10 µM) was 36.64%, the GI50 (OVCAR-4) was 25.6 µM and the GI50 (MDA-MB-468; [2]) was 12.6 µM. The “Percentage Cell Growth” value (MDA-MB-468; single dose 10 µM) was −19.87%, the GI50 (SNB-75; [2]) was 32.1 µM and the “Percentage Cell Growth” value (SNB-75; single dose 10 µM) was −51.56%. The “Percentage Cell Growth” value (DU-145; single dose 10 µM) was −100.00%, the GI50 (DU-145; [2]) was 17.5 µM and the GI50 (UO-31; [2]) was 38.9 µM. For the same compound, the “Percentage Cell Growth” value (UO-31; single dose 10 µM) was −34.32%, the “Percentage Cell Growth” value (786-0; single dose 10 µM) was −22.61% and the GI50 (786-0; [2]) was 23.2 µM. For the same compound, the “cancer cell lethality, range of percentage growth” value ([1]; cell lines with negative growth) was −2.14% to −100%, the “cases of cancer cell lethality” value ([1]; number of cell lines) was 48 and the GI50 (LOX IMVI; [2]) was 25.5 µM. The “Percentage Cell Growth” value (LOX IMVI; single dose 10 µM) was 1.37%, the GI50 (IGROV1; Homo sapiens, IGROV-1, five concentrations, 48 h, SRB, read-out: GI50) was 21.5 µM and the “Percentage Cell Growth” value (IGROV1; single dose 10 µM) was −6.94%. For the same compound, the activity at 10 µM (RPMI-8226; [3]) was -6.66% and the GI50 (RPMI-8226; [4]) was 17.2 µM.
